Experiment [1] has as its target T1, melanocortin-4 receptor (Homo sapiens, UniProt P32245).
T1 construct: expressed in transfected cells; host or cells: HEK293 cells (membrane preparations)
Briefly: Membrane binding assay (fluorescence polarization, competition with fluorescence labeled NDP-alpha-MSH). The conditions noted are these: read-out: hMC-4R binding assay IC50/μM.

For experiment [2], the target named is T1, melanocortin-4 receptor. Briefly: Functional assay (cAMP fluorescence polarization, membrane based, agonistic activity). The experiment is classed as biochemical. Conditions: for Emax: 2 h, read-out: % activation functional assay; for EC50: agonistic activity, cAMP, HEK293 membrane preparations, read-out: hMC-4R functional assay EC50/μM.

T1 sequence (P32245 whole entry): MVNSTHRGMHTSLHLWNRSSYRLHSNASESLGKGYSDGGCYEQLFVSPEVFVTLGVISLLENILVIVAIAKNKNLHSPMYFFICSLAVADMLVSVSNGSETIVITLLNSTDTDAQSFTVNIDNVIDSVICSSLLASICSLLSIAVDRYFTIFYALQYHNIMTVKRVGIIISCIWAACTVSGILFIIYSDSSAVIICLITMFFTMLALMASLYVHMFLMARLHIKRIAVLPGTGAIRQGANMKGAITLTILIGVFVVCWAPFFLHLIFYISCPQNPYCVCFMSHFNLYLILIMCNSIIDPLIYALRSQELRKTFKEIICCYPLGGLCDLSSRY

`CC(C)CCN(CCC(C)C)C(=O)c1ccc2nc(-c3ncco3)c(CCCN(C)C(C)C)n2c1` [Example 75]: in experiment [1], the IC50 is less than 0.1 µM. Further, the Emax in experiment [2] came to 1%.
In the case of `CC(C)CCN(CCC(C)C)C(=O)c1ccc2nc(-c3ncco3)c(CCCN3CCC[C@H]3CO)n2c1` [Example 76], the IC50 in experiment [1] is 0.1 to 1 µM. Further, the Emax in experiment [2] is 4%.
For `CC(C)CCN(CCC(C)C)C(=O)c1ccc2nc(-c3ncco3)c(CCCN3CCC(O)CC3)n2c1` [Example 77], the IC50 in experiment [1] was less than 0.1 µM. In addition, the Emax in experiment [2] is 4%.
Regarding `CC(C)CCN(CCC(C)C)C(=O)c1ccc2nc(-c3ncco3)c(CCCN3CC[C@H](F)C3)n2c1` [Example 78], the IC50 in experiment [1] is less than 0.1 µM. For the same compound, the Emax in experiment [2] was 2%.
For the compound `CC(C)CCN(CCC(C)C)C(=O)c1ccc2nc(-c3ccc(OCCO)nc3)c(CCCN3CCCC3)n2c1` [Example 79], the IC50 in experiment [1] is less than 0.1 µM. In experiment [2], the Emax is 11%.
Turning to `CC(C)CCN(CCC(C)C)C(=O)c1ccc2nc(-c3ncco3)c(CCCN3CC[C@H](O)C3)n2c1` [Example 80], the IC50 in experiment [1] lay in the range of 0.1 to 1 µM. Further, in experiment [2], the Emax was -35% and the EC50 fell in the range of 0.1 to 1 µM.
In the case of `CC(C)CCN(CCC(C)C)C(=O)c1ccc2nc(-c3ccc(=O)n(CCO)c3)c(CCCN3CCCC3)n2c1` [Example 81], the IC50 in experiment [1] is less than 0.1 µM. Moreover, the Emax in experiment [2] is -9%.
`COc1ccc(-c2nc3ccc(C(=O)N(CCC(C)C)CCC(C)C)cn3c2CCCN2CCCC2)cn1` [Example 82]: the IC50 in experiment [1] was less than 0.1 µM. Further, in experiment [2], the Emax is -17% and the EC50 was less than 0.1 µM.
On to `COc1ccc(-c2nc3ccc(C(=O)N(CCC(C)C)CCC(C)C)cn3c2CCCN(C)C)cn1` [Example 83], for which, in experiment [1], the IC50 was less than 0.1 µM. The Emax in experiment [2] was -1%.
Regarding `CC(C)CCN(CCC(C)C)C(=O)c1ccc2nc(-c3ncccn3)c(CCCN3CCCC3)n2c1` [Example 84], the IC50 in experiment [1] is less than 0.1 µM. For the same compound, the Emax in experiment [2] is -8%.
In the same order, the values of `CC(C)CCN(CCC(C)C)C(=O)c1ccc2nc(-c3ncco3)c(CCCN3CCC[C@@H]3C)n2c1` [Example 85] are less than 0.1 µM and -2%.
For the compound `CC(C)CCN(CCC(C)C)C(=O)c1ccc2nc(-c3ncco3)c(CCCN3CCC[C@H]3C)n2c1` [Example 86], the IC50 in experiment [1] was less than 0.1 µM. Moreover, in experiment [2], the Emax is -11%.
Consider `CC(C)CCN(CCC(C)C)C(=O)c1ccc2nc(-c3cccnc3N)c(CCCN(C)C)n2c1` [Example 87], for which the IC50 in experiment [1] was greater than 1 µM. The Emax in experiment [2] turned out to be 0%.
On to `CC(C)CCN(CCC(C)C)C(=O)c1ccc2nc(-c3cc[nH]c(=O)c3)c(CCCN(C)C)n2c1` [Example 88], for which the IC50 in experiment [1] is 0.1 to 1 µM. Further, in experiment [2], the Emax was -2%.
In the case of `CC(C)CCN(CCC(C)C)C(=O)c1ccc2nc(-c3cc[nH]c(=O)c3)c(CCCN3CCCC3)n2c1` [Example 89], in experiment [1], the IC50 is less than 0.1 µM. In addition, in experiment [2], the Emax was -25% and the EC50 was less than 0.1 µM.
Take `CC(C)CCN(CCC(C)C)C(=O)c1ccc2nc(-c3cccnc3N)c(CCCN3CCCC3)n2c1` [Example 90]: the IC50 in experiment [1] is 0.1 to 1 µM. Also, in experiment [2], the Emax was -41% and the EC50 is greater than 1 µM.
For `CC(C)CCN(CCC(C)C)C(=O)c1ccc2nc(-c3ccc(=O)n(CCCO)c3)c(CCCN3CCCC3)n2c1` [Example 91], the IC50 in experiment [1] fell in the range of 0.1 to 1 µM. Further, in experiment [2], the Emax is -29% and the EC50 is 0.1 to 1 µM.
`CC(C)CCN(CCC(C)C)C(=O)c1ccc2nc(-c3ccc(OCCCO)nc3)c(CCCN3CCCC3)n2c1` [Example 92]: in experiment [1], the IC50 was in the range of 0.1 to 1 µM. In experiment [2], the Emax was -31% and the EC50 is less than 0.1 µM.
Regarding `CC(C)CCN(CCC(C)C)C(=O)c1ccc2nc(-c3ccc(=O)n(CC(C)O)c3)c(CCCN3CCCC3)n2c1` (stereo not shown) [Example 93], the IC50 in experiment [1] is 0.1 to 1 µM. In addition, the Emax in experiment [2] came out at 0%.
In the case of `CC(C)CCN(CCC(C)C)C(=O)c1ccc2nc(-c3ccc(OCC(C)O)nc3)c(CCCN3CCCC3)n2c1` (stereo not shown) [Example 94], in experiment [1], the IC50 was greater than 1 µM. For the same compound, the Emax in experiment [2] is -13%.
Take `COCCn1cc(-c2nc3ccc(C(=O)N(CCC(C)C)CCC(C)C)cn3c2CCCN2CCCC2)ccc1=O` [Example 95]: the IC50 in experiment [1] is less than 0.1 µM. In experiment [2], the Emax was 0%.
The corresponding values for `COCCOc1ccc(-c2nc3ccc(C(=O)N(CCC(C)C)CCC(C)C)cn3c2CCCN2CCCC2)cn1` [Example 96] are less than 0.1 µM and 0%.
In the case of `CC(=O)OCCOc1ccc(-c2nc3ccc(C(=O)N(CCC(C)C)CCC(C)C)cn3c2CCCN2CCCC2)cn1` [Example 97], the IC50 in experiment [1] is less than 0.1 µM. Further, in experiment [2], the Emax is 1%.
Turning to `CC(C)CCN(CCC(C)C)C(=O)c1ccc2nc(C3CCOCC3)c(CCCN3CCCC3)n2c1` [Example 98], in experiment [1], the IC50 lay in the range of 0.1 to 1 µM. Moreover, the Emax in experiment [2] is -8%.
In the case of `CC(=O)OCCn1cc(-c2nc3ccc(C(=O)N(CCC(C)C)CCC(C)C)cn3c2CCCN2CCCC2)ccc1=O` [Example 99], in experiment [1], the IC50 was less than 0.1 µM. The Emax in experiment [2] was 4%.
For the compound `CC(C)CCN(CCC(C)C)C(=O)c1ccc2nc(-c3ccc(=O)[nH]c3)c(CCCN3CCCC3C)n2c1` (stereo not shown) [Example 100], the IC50 in experiment [1] is less than 0.1 µM. Moreover, the Emax in experiment [2] was -22%.
For the compound `CC(=O)OCCn1cc(-c2nc3ccc(C(=O)N(CCC(C)C)CCC(C)C)cn3c2CCCN2CCCC2C)ccc1=O` (stereo not shown) [Example 101], the IC50 in experiment [1] was less than 0.1 µM. Further, the Emax in experiment [2] is -25%.
Take `CC(=O)OCCOc1ccc(-c2nc3ccc(C(=O)N(CCC(C)C)CCC(C)C)cn3c2CCCN2CCCC2C)cn1` (stereo not shown) [Example 102]: in experiment [1], the IC50 is less than 0.1 µM. Also, the Emax in experiment [2] is -15%.
In the case of `CC(C)CCN(CCC(C)C)C(=O)c1ccc2nc(-c3ccc(=O)n(CCO)c3)c(CCCN3CCCC3C)n2c1` (stereo not shown) [Example 103], in experiment [1], the IC50 is less than 0.1 µM. For the same compound, the Emax in experiment [2] was -20%.
As to `CC(C)CCN(CCC(C)C)C(=O)c1ccc2nc(-c3ccc(OCCO)nc3)c(CCCN3CCCC3C)n2c1` (stereo not shown) [Example 104], in experiment [1], the IC50 is less than 0.1 µM. Moreover, the Emax in experiment [2] is -15%.
The corresponding values for `CC(=O)OCCn1cc(-c2nc3ccc(C(=O)N(CCC4CC4)CCC4CC4)cn3c2CCCN2CCCC2)ccc1=O` [Example 105] are 0.1 to 1 µM and -24%.
In the case of `CC(=O)OCCOc1ccc(-c2nc3ccc(C(=O)N(CCC4CC4)CCC4CC4)cn3c2CCCN2CCCC2)cn1` [Example 106], the IC50 in experiment [1] was in the range of 0.1 to 1 µM. In addition, the Emax in experiment [2] is 0%.
As for `O=C(c1ccc2nc(-c3ccc(=O)n(CCO)c3)c(CCCN3CCCC3)n2c1)N(CCC1CC1)CCC1CC1` [Example 107], the IC50 in experiment [1] fell in the range of 0.1 to 1 µM. Moreover, the Emax in experiment [2] is -17%.
As for `O=C(c1ccc2nc(-c3ccc(OCCO)nc3)c(CCCN3CCCC3)n2c1)N(CCC1CC1)CCC1CC1` [Example 108], the IC50 in experiment [1] is 0.1 to 1 µM. The Emax in experiment [2] is -19%.
In the case of `CC1CCCN1CCCc1c(-c2ccc(=O)[nH]c2)nc2ccc(C(=O)N(CCC3CC3)CCC3CC3)cn12` (stereo not shown) [Example 109], in experiment [1], the IC50 was less than 0.1 µM. Moreover, the Emax in experiment [2] is -23%.
In the same order, the values of `CC(=O)OCCn1cc(-c2nc3ccc(C(=O)N(CCC4CC4)CCC4CC4)cn3c2CCCN2CCCC2C)ccc1=O` (stereo not shown) [Example 110] are 0.1 to 1 µM and -23%.
As to `CC1CCCN1CCCc1c(-c2ccc(=O)n(CCO)c2)nc2ccc(C(=O)N(CCC3CC3)CCC3CC3)cn12` (stereo not shown) [Example 111], the IC50 in experiment [1] lay within 0.1 to 1 µM. In addition, in experiment [2], the Emax was -25%.
Turning to `CC1CCCN1CCCc1c(-c2ccc(OCCO)nc2)nc2ccc(C(=O)N(CCC3CC3)CCC3CC3)cn12` (stereo not shown) [Example 112], the IC50 in experiment [1] is less than 0.1 µM. In addition, the Emax in experiment [2] was -9%.
Regarding `CC(C)CCN(CCC(C)C)C(=O)c1ccc2nc(-c3ccc(C#N)cc3)c(CN3CCC(N(C)C)CC3)n2c1` [Example 113], the IC50 in experiment [1] lay within 0.1 to 1 µM. The Emax in experiment [2] is 0%.
Take `COc1cccc(-c2nc3ccc(C(=O)N(CCC(C)C)CCC(C)C)cn3c2CN2CCC(N(C)C)CC2)c1` [Example 114]: the IC50 in experiment [1] lay in the range of 0.1 to 1 µM. Besides, the Emax in experiment [2] amounted to 0%.
In the case of `COc1cccc(-c2nc3ccc(C(=O)N(CCC(C)C)CCC(C)C)cn3c2CN2CCC(N)CC2)c1` [Example 116], the IC50 in experiment [1] was in the range of 0.1 to 1 µM. Further, the Emax in experiment [2] amounted to 0%.
With `CC(C)CCN(CCC(C)C)C(=O)c1ccc2nc(-c3ccc(Cl)cc3)c(CN3CCC(N)CC3)n2c1` [Example 117], in experiment [1], the IC50 is 0.1 to 1 µM. The Emax in experiment [2] worked out at 0%.
With `CC(C)CCN(CCC(C)C)C(=O)c1ccc2nc(-c3ccc(F)cc3)c(CN3CCC(N)CC3)n2c1` [Example 118], the IC50 in experiment [1] was 0.1 to 1 µM. Besides, the Emax in experiment [2] stood at 0%.
Regarding `CC(C)CCN(CCC(C)C)C(=O)c1ccc2nc(-c3cccc(Cl)c3)c(CN3CCC(N)CC3)n2c1` [Example 120], the IC50 in experiment [1] is greater than 1 µM. In addition, the Emax in experiment [2] worked out at 0%.
As to `COc1cccc(-c2nc3ccc(C(=O)N(CCC(C)C)CCC(C)C)cn3c2CN2CCNCC2)c1` [Example 121], the IC50 in experiment [1] is greater than 1 µM. Also, in experiment [2], the Emax was 0%.
Take `CC(C)CCN(CCC(C)C)C(=O)c1ccc2nc(-c3cccc(C#N)c3)c(CN3CCC(N)CC3)n2c1` [Example 122]: the IC50 in experiment [1] lay within 0.1 to 1 µM. Further, the Emax in experiment [2] came to 0%.
In the case of `COc1cccc(-c2nc3ccc(C(=O)N(CCC(C)C)CCC(C)C)cn3c2CN2CCC(N)C2)c1` (stereo not shown) [Example 123], in experiment [1], the IC50 is greater than 1 µM. The Emax in experiment [2] turned out to be 0%.
`CC(C)CCN(CCC(C)C)C(=O)c1ccc2nc(-c3ccc(-c4ccccn4)s3)c(CN3CCC(N)CC3)n2c1` [Example 124]: in experiment [1], the IC50 fell in the range of 0.1 to 1 µM. In addition, the Emax in experiment [2] was 0%.
`CC(C)CCN(CCC(C)C)C(=O)c1ccc2nc(-c3cccs3)c(CN3CCC(N)CC3)n2c1` [Example 125]: the IC50 in experiment [1] lay in the range of 0.1 to 1 µM. Besides, in experiment [2], the Emax is 0%.
With `CC(C)CCN(CCC(C)C)C(=O)c1ccc2nc(-c3ccc(Cl)cc3)c(CN3CCCC(N)C3)n2c1` (stereo not shown) [Example 126], the IC50 in experiment [1] is greater than 1 µM. For the same compound, the Emax in experiment [2] amounted to 0%.
